Source: patent US10792287B2, “Methods for treating mitochondrial diseases” (The Regents of the University of California, priority 2015, dated 2020)
Counter-ions that a name gives are not always drawn. Like-named read-outs stand apart in the source and are kept apart here.

How the values were obtained:
[1] = test system: LHON cybrids (11778 G>A); experiment: Complex I-driven ATP synthesis in rotenone-inhibited LHON mutant cybrids (luciferase-based, high-throughput screen and concentration-response); assay type: cell-based
[2] = test system: inflammatory genes in retinas of Ndufs4 KO mice; experiment: qRT-PCR of inflammatory genes in retinas after rapamycin treatment (Example 1); assay type: in vivo, mouse; settings: rapamycin 8 mg/kg intraperitoneally for 9 days
Description: FIG. 6 depicts an experimental reversal of inflammatory gene induction by rapamycin. White bars, a mean increase in transcript level of 16/16 inflammatory markers was observed by qRT-PCR in retinas of Ndufs4 KO mice compared to wild type. […] Statistical significance determined by student's t test. * P<0.05, ** P<0.01.
Rapamycin was dissolved in DMSO to 100 mg/mL. This was diluted in 5% PEG-400/5% Tween-20 (vehicle) to a concentration of 0.6 mg/mL, sterile filtered, and stored at −80 for long-term storage. Rapamycin treated mice were injected with 132 microliters/10 g body weight for a final dose of 8.0 mg/kg (Johnson et al., Science, 2013, 342, 1524-1528). Vehicle mice were injected with equal volume of PBS and DMSO lacking rapamycin. […]
The change in PCR products as the reaction proceeded was monitored by SYBR green dye (Invitrogen, Grand Island, N.Y.). […] Quantification cycle (Cq) values obtained by the Lightcycler were analyzed by normalizing the values to the reference genes and delta Cq values were calculated to determine relative gene expression values compared to wild type. Delta delta Cq was also calculated to determine the fold change difference between Ndufs4 knockout and wild type. Significance, p<0.05 was determined using two sample independent student's t-test statistics with equal sample size and assuming equal variance.

[3] = test system: control healthy cybrid; experiment: Mitochondrial copy number (MT-TL1/B2M ratio), control cybrids; assay type: cell-based; settings: control cells; 24 hrs exposure
Description: (§1) FIGS. 14A-14C illustrate the effect of drugs on the mitochondrial copy number. Difference of mitochondrial copy number between 11778 (G>A) mutant and control cybrids (FIG. 14A). Effect of zolpidem and papaverine on the control healthy cybrid mitochondrial copy number (FIG. 14B) and 11778 (G>A) mutant cybrid mitochondrial copy number (FIG. 14C). Cells were treated with either vehicle or one of the drugs at specified concentration for 24 h. The cells were harvested after 24 h and the ratio between MT-TL1 and B2M was determined. Data is presented as average relative fold change±std. deviation from three independent observations. Statistical significance (p<0.05) is denoted by ‘*’ and was determined by one way ANOVA and Dunett's post hoc test.

[4] = test system: 11778 (G>A) mutant cybrid; experiment: Mitochondrial copy number (MT-TL1/B2M ratio), mutant cybrids; assay type: cell-based; settings: LHON mutant cells [11778(G>A)]; 24 hrs exposure
Description: as §1

[5] = test system: Ndufs4 knockout mice; experiment: Visual cliff test; assay type: in vivo, mouse; settings: P21-P35 treatment; papaverine 20 mg/kg, zolpidem 20 mg/kg, rapamycin 8 mg/kg i.p.; idebenone 200 mg/kg oral
[6] = test system: innate immune/inflammatory response in Ndufs4 KO retina; experiment: Retinal gene expression of innate immune and inflammatory markers after drug treatment (Example 3); assay type: in vivo, mouse; settings: Ndufs4 KO mice; doses as in drug formulation
Description: The graphs represent RNA expression of B2m (FIG. 21A), Tlr2 (FIG. 21B), Cxc110 (FIG. 21C), Cc15 (FIG. 21D), and Aif1 (FIG. 21E) in the wild type and Ndufs4 knockout retina. Bars represent mean delta Ct values normalized to housekeeping genes, Actb and Mapk1. Error bars represent standard error of the mean. Statistical significance was determined by two-tailed student's t test. * P<0.05, ** P<0.01, **** P<0.0001.
(§2) Wild type and Ndufs4 knockout mice were placed in one of five groups: vehicle, papaverine (20 mg/kg), zolpidem (20 mg/kg), rapamycin (8 mg/kg), or idebenone (200 mg/kg). For papaverine, zolpidem, and rapamycin, drug was dissolved in DMSO which was diluted in 5% PEG-400/5% Tween-20 in PBS. Vehicle contained all components except for the drug. The solution was then sterile filtered and intraperitoneal injections were performed using a 30 gauge needle. Idebenone was administered as a jelly and consumed orally.
We have previously shown that inflammatory gene expression of Aif1, Tlr2, B2m, Cc15, and Cxc110 are all elevated in the Ndufs4 KO mouse compared to wild type by more than 3-fold, indicating an inflammatory pathomechanism of mitochondrial blindness (Yu et al., Proc Natl Acad Sci USA, 2015, 112(42): E5689-98). […] Papaverine, zolpidem, rapamycin, and idebenone were administered to Ndufs4 KO mice to determine whether their protection of vision (FIG. 20) was through an anti-inflammatory mechanism of action. […] Thus, papaverine, zolpidem, and rapamycin appear to protect mitochondrial loss of vision through an antiinflammatory mechanism.

[7] = test system: Ndufs4 KO mice; experiment: Starburst amacrine cell count (ChAT staining of whole retina); assay type: in vivo, mouse; settings: two weeks (P21-P35) intraperitoneal injections
Description: 20× confocal images of whole retina stained with ChAT (marker of starburst amacrine cells) from wild type (FIG. 22A), Ndusf4 KO vehicle treated (FIG. 22B), Ndufs4 KO papaverine treated (FIG. 22C), Ndufs4 KO zolpidem treated (FIG. 22D), and Ndufs4 KO rapamycin treated (FIG. 22E) are shown.
as §2

[8] = test system: Ndufs4 KO mice; experiment: Microglia activation (Iba1 staining of whole mount retinas); assay type: in vivo, mouse; settings: two weeks (P21-P35) intraperitoneal treatment
[9] = test system: control osteosarcoma cells and LHON mutant (11778 G>A) cells; experiment: Validation of complex I-driven ATP synthesis assay with substrates and inhibitors of mitochondrial complexes; assay type: cell-based; settings: for mitochondrial ATP synthesis: inhibitor at 1 μM, malate/pyruvate substrates, permeabilized cells
Text: The data is presented as ATP synthesis rate+standard deviation from one representative experiment.

[10] = test system: 11778(G>A) mutant cybrids; experiment: Effect of rotenone on complex I-driven ATP synthesis in mutant vs control osteosarcoma cybrids; assay type: cell-based
Text: (§3) The data is presented as average+standard deviation from three independent experiments and single asterisk signifies the statistical significance (P<0.05) between the control and LHON mutant cells.
Among the various LHON-associated mutations, 11778(G>A) mutation encoding ND4 subunit of mitochondrial complex I is the most prevalent and the most severe (Oostra et al., J Med Genet, 1994, 31, 280-286). It has been previously hypothesized that some external stress factors are responsible for the precipitation of vision loss in LHON (Chalmers et al., Biochimica et Biophysica Acta, 1999, 1410, 147-158). To understand the 11778(G>A) mutant mitochondrial functionality under stress, we evaluated the effect of a complex I inhibitor on complex I-driven ATP synthesis using an osteosarcoma cybrid model (FIG. 11A).
Measurement of complex I-driven ATP synthesis: The cybrid cells were seeded at 50000 cells/well in 100 μL of medium, in a white, opaque-bottom, 96-well plate coated with poly-D-lysine (Corning) and was incubated at 37° C. overnight. […] After 2 hr incubation at 37° C., the medium from the plates were aspirated using an automatic plate washer (Biotek) and complex I-driven ATP synthesis was measured following the protocol of Yoshida and Fujikawa (Fujikawa et al., Biochemical and Biophysical Research Communications, 2010, 401, 538-543). […]

[11] = test system: 11778 (G>A) mutant lymphoblasts; experiment: Effect of rotenone on complex I-driven ATP synthesis in lymphoblasts; assay type: cell-based; settings: gender-matched lymphoblasts
Description: as §3
For the lymphoblasts, drug-treated cells were centrifuged and resuspended at a concentration of 2×10^6 cells/mL, in the permeabilization buffer containing activated streptolysin O (Sigma). After 10 min incubation at 4° C., the cells were centrifuged and resuspended in transfer buffer at the same concentration. The cells were then incubated at 37° C. for 10 min followed by centrifugation and resuspension in buffer A containing malate (5 mM, Sigma), sodium pyruvate (5 mM, Sigma) and high purity ADP (200 μM, Apollo Scientific). Subsequently, 50 μL of buffer A containing 100,000 cells were plated in each wells of a 96-well plate. After 20 min of incubation at the room temperature the complex I-driven ATP synthesis was measured by using ATP Bioluminescence Assay Kit CLS II (Roche) following manufacturer's instruction.

[12] = 20 h; read-out: Fold change of ATP synthesis rate greater than 2x Median Absolution Deviation

C1N2CN3CN1CN(C2)C3 [Methenamine, methenamine]
fold induction at 10 µM [1, 12]: 1.3

CO[C@H]1C[C@@H]2CC[C@@H](C)[C@@](O)(O2)C(=O)C(=O)N2CCCC[C@H]2C(=O)O[C@H]([C@H](C)C[C@@H]2CC[C@@H](O)[C@H](OC)C2)CC(=O)[C@H](C)/C=C(\C)[C@@H](O)[C@@H](OC)C(=O)[C@H](C)C[C@H](C)/C=C/C=C/C=C/1C [rapamycin]
transcripts with inhibition of mean amplitude of induction of inflammatory genes [2]: 16/16

Cc1ccc(-c2nc3ccc(C)cn3c2CC(=O)N(C)C)cc1 [zolpidem]
fold induction at 10 µM ([1]; 20 h, read-out: Fold change of ATP synthesis rate greater than 2x Median Absolution Deviation): 1.4 | reversal of rotenone sensitivity of complex I-driven ATP synthesis ([1]; different concentrations of drug 22 h, then rotenone 0.03 μM 2 h): dose-dependently reversed the rotenone-sensitivity | ATP synthesis rate relative to vehicle-treated cells after rotenone ([1]; zolpidem 30 μM pre-treatment; rotenone 0.03 μM): 2 times | ATP synthesis rate compared to vehicle pre-treated cells ([1]; zolpidem 3, 10, and 30 μM pre-treatment; rotenone 0.03 μM): significantly higher ATP synthesis rate | ratio of mtDNA/nDNA [3]: did not significantly change the ratio of mtDNA/nDNA | ratio of mtDNA/nDNA [4]: did not significantly change the ratio of mtDNA/nDNA | visual function (median # edge detections) [5]: visual function was preserved | innate immune/inflammatory gene expression (B2m, Tlr2, Cxcl10, Ccl5, Aif1) in retina [6]: significantly inhibited a portion of the innate immune/inflammatory response | starburst amacrine cell loss [7]: significant protection of startburst amacrine cells from apoptosis | microglia activation [8]: decrease in microglia activation

CC[C@H]1/C=C/C=C/C[C@@H](C)[C@H](O)[C@@](C)(O)C(=O)[C@@H](C)[C@H](O)[C@@H](C)C(=O)[C@@H](C)[C@H](O)[C@@H](C)/C=C/C(=O)O[C@@H]2[C@H](C)[C@H](CC1)O[C@]1(CC[C@H](C)[C@H](C[C@@H](C)O)O1)[C@H]2C [oligomycin]
mitochondrial ATP synthesis [9]: inhibited the mitochondrial ATP synthesis

O=C(O)CCC(=O)O [succinate]
reversal of inhibitor-induced inhibition of ATP synthesis ([9]; succinate 5 mM vs rotenone, ascorbate/TMPD vs antimycin): reversed

O=c1[nH]cc(F)c(=O)[nH]1 [Fluorouracil, 5-fluorouracil]
fold induction at 10 µM [1, 12]: 1.1

CN(Cc1cnc2nc(N)nc(N)c2n1)c1ccc(C(=O)N[C@@H](CCC(=O)O)C(=O)O)cc1 [Methotrexate, methotrexate]
fold induction at 10 µM [1, 12]: 1.2

CN1CCc2cc3c(cc2[C@H]1[C@@H]1OC(=O)c2c1ccc1c2OCO1)OCO3 [bicuculine, bicuculline]
effect of GABAA antagonist on reversal of rotenone inhibition by zolpidem ([1]; zolpidem 30 μM and bicuculline 30 μM for 22 h, then rotenone 0.03 μM 2 h): no significant effect

O=S(=O)(NCCNC/C=C/c1ccc(Br)cc1)c1cccc2cnccc12 [H89]
effect of H89 on rotenone rescue effect of zolpidem ([1]; H89 3 μM with zolpidem 30 μM): reversed the rotenone rescue effect of zolpidem | effect of PKA inhibitor on papaverine's protection from rotenone ([1]; papaverine 30 μM and H89 3 μM for 22 h, then rotenone 0.03 μM 2 h): did not decrease papaverine's ability to protect from rotenone

C=C(C)[C@H]1Cc2c(ccc3c2O[C@@H]2COc4cc(OC)c(OC)cc4[C@@H]2C3=O)O1 [rotenone]
mitochondrial ATP synthesis [9]: inhibited the mitochondrial ATP synthesis | rotenone-dependent ATP synthesis defect across 11778, 3460 and 14484 mutant cybrids ([10]; 3 most common LHON mutations in cybrids): directly in proportion to the severity of the disease in humans | sensitivity of complex I-driven ATP synthesis to rotenone ([10]; rotenone 0.001 μM-1 μM, 24 h, mutant clones HCT22, HFF3 vs control HGA2, H1959): highly sensitive to rotenone when compared to control | differential effect of rotenone on mutant vs control ATP synthesis [11]: clearly reproducible

Cn1cnc([N+](=O)[O-])c1Sc1ncnc2nc[nH]c12 [Azathioprine, azathioprine]
fold induction at 10 µM [1, 12]: 1.4

COC1=C(OC)C(=O)C(CCCCCCCCCCO)=C(C)C1=O [idebenone]
visual function (median # edge detections) [5]: not significant | innate immune/inflammatory gene expression (B2m, Tlr2, Cxcl10, Ccl5, Aif1) in retina [6]: significantly inhibited a portion of the innate immune/inflammatory response

COc1ccc(OC)c(C(O)C(C)N)c1 (stereo not shown) [Methoxamine HCl, 2-amino-1-(2,5-dimethoxyphenyl)-1-propanol]
fold induction at 10 µM [1, 12]: 1.4

antimycin A
mitochondrial ATP synthesis [9]: inhibited the mitochondrial ATP synthesis
